{"source": "patent US20260158102A1", "about": "“CYCLIC PEPTIDE DERIVATIVE COMPOSITION FOR TREATING OR PREVENTING NEUROPATHIC PAIN AND/OR INFLAMMATORY PAIN” (DKS Co. Ltd., priority 2022, published 2026)", "key": {"[1]": {"tested_on": "STZ-induced diabetic rats", "test": "von Frey test in rat STZ-induced diabetes model", "assay_type": "in vivo", "conditions": "for 50% withdrawal threshold by von Frey test: mean ± SE, n=10", "protocol": "The activity of the compound of the present disclosure was evaluated according to the following procedure.\n(§1) Compound 9 (50 mg/mL) was diluted with water for injection to obtain a 1 mg/mL administration specimen. For the specimens to be administered at 0.1 mg/mL and 0.01 mg/mL, the specimen to be administered at 1 mg/mL was diluted stepwise with water for injection. Each administration specimen was divided into PP disposable tubes every day and stored in a storehouse (freezer: MDF-MU339H-PJ, PHC Corporation) under the condition of freezing (−30° C. to −20° C., measured value: −26.4 to −24.5° C.). Preparation was performed on the day before the start of administration.\n(§2) Water for injection was added to and dissolved in Pregabalin taken out from the capsule to obtain 2 mg/mL. It was prepared before use.\n(§3) • Animal species: rat (SPF) • Strain: Crl: CD (SD) • Date of animal acquisition, gender, age in weeks, number of animals acquired, and weight range after 1 day of acquisition • First and second courses: Apr. 6, 2022, male, 7 weeks old, 35 animals, 217 to 237 g • Third and fourth courses: Apr. 13, 2022, male, 7 weeks old, 35 animals, 216 to 235 g • Source: […].\nAmong the animals having a 50% withdrawal threshold of 8 g or more in the von Frey test measured during the preliminary breeding period, two animals from young animals with animal numbers were assigned to non-diabetes-induced animals, and the remaining animals were assigned to diabetes-induced animals.\nAmong the diabetes-induced animals, animals having a blood glucose level of 300 mg/dL or less were excluded from the grouping subjects, and were grouped using a computer program (IBUKI, Nihon Bioresearch Center, Inc.) so that the body weight and the average blood glucose level of each group were approximately equal. That is, the animals for the first and second courses and the third and fourth courses were grouped into one non-diabetes animal for Group 1, and 5 […] animals for Groups 2 to 6. Note that the grouping was performed so that there were 4 examples in Group 1 and 10 examples in each of Groups 2 to 6.\n• Administration method: Using a syringe (Terumo Corporation) equipped with a 25 G winged injection needle (Terumo Corporation), tail vein administration was performed. Note that a 0.75 mmol/L CAB solution was administered to a non-diabetes-induced control group.\n(§4) • Dose volume: calculated at 2 mL/kg based on the body weight on the day of administration. • Number of times of administration: once • Day of administration: 7 days before the day of starting administration of the test substance.\n• Administration method: Using a syringe (Terumo Corporation) equipped with a 25 G winged injection needle (Terumo Corporation), tail vein administration was performed. Note that physiological saline was administered to the non-diabetes control group and the diabetes control group.\n(§5) • Dose volume: calculated at 1 mL/kg based on the body weight on the day of administration. • Number of times of administration: 9 times • Interval of administration: once every 3 days (evaluation was performed on the day after administration) • Day of starting administration: day 8 of STZ administration (day of STZ administration is counted as day 1).\n• Administration method: Using a polypropylene disposable syringe (Terumo Corporation) equipped with a metal oral zonde for a rat (Fuchigami kikai Ltd.), forced oral administration was performed.\n• Dose volume: calculated at 10 mL/kg based on the body weight on the day of administration. • Number of times of administration: Administration was performed once on the day of evaluation of neuropathic pain, twice in total, and on the other days of administration, a vehicle for a control substance (water for injection) was orally administered. […]"}, "[2]": {"test": "Body weight measurement in rat STZ-induced diabetes model", "assay_type": "in vivo", "conditions": "mean ± SE, in g (unit assumed)", "protocol": "as §1, §2, §3, §4, §5\n• Dose volume: calculated at 10 mL/kg based on the body weight on the day of administration. • Number of times of administration: Administration was performed once on the day of evaluation of neuropathic pain, twice in total, and on the other days of administration, a vehicle for a control substance (water for injection) was orally administered.\n• Measurement was performed every day after the day of STZ administration.\nThe mean and standard error of each group were calculated for the 50% withdrawal threshold, body weight, and blood glucose level.\nThe body weight was an integer.\nNo significant difference test of body weight and blood glucose levels was performed."}}, "data": [{"smiles": "CC[C@@]1(C)Oc2cc(ccc2O)C[C@H](NC)C(=O)N[C@@H](C(C)C)C(=O)N[C@@H]1C(=O)N[C@@H](CC(=O)O)C(=O)O", "note": "[Compound 9]", "values": [{"measurement": "50% withdrawal threshold by von Frey test", "setting": "[1]; 0.01 mg/kg iv group, Pre: before STZ administration", "result": "14.6 ± 0.4", "unit": "g"}, {"measurement": "change in the 50% withdrawal threshold (von Frey test)", "setting": "[1]; 0.01 mg/kg iv group, as compared with the non-diabetes control group (so in the source)", "result": "no significant change"}, {"measurement": "50% withdrawal threshold by von Frey test", "setting": "[1]; 0.01 mg/kg iv once every 3 days from day 8, day 14 of STZ administration", "result": "5.7 ± 0.5", "unit": "g"}, {"measurement": "50% withdrawal threshold by von Frey test", "setting": "[1]; 0.01 mg/kg iv once every 3 days from day 8, day 28 of STZ administration", "result": "3.8 ± 0.2", "unit": "g"}, {"measurement": "50% withdrawal threshold by von Frey test", "setting": "[1]; 0.1 mg/kg iv group, Pre: before STZ administration", "result": "13.1 ± 0.8", "unit": "g"}, {"measurement": "change in the 50% withdrawal threshold (von Frey test)", "setting": "[1]; 0.1 mg/kg iv group, as compared with the non-diabetes control group (so in the source)", "result": "no significant change"}, {"measurement": "50% withdrawal threshold by von Frey test", "setting": "[1]; 0.1 mg/kg iv once every 3 days from day 8, day 14 of STZ administration", "result": "5.7 ± 0.5", "unit": "g"}, {"measurement": "50% withdrawal threshold by von Frey test", "setting": "[1]; 0.1 mg/kg iv once every 3 days from day 8, day 28 of STZ administration", "result": "4.8 ± 0.4", "unit": "g"}, {"measurement": "50% withdrawal threshold by von Frey test", "setting": "[1]; 1 mg/kg iv group, Pre: before STZ administration", "result": "13.5 ± 0.7", "unit": "g"}, {"measurement": "change in the 50% withdrawal threshold (von Frey test)", "setting": "[1]; 1 mg/kg iv group, day 28 after STZ administration, as compared with the diabetes control group", "result": "significant increase"}, {"measurement": "50% withdrawal threshold by von Frey test", "setting": "[1]; 1 mg/kg iv once every 3 days from day 8, day 14 of STZ administration", "result": "5.8 ± 0.5", "unit": "g"}, {"measurement": "50% withdrawal threshold by von Frey test", "setting": "[1]; 1 mg/kg iv once every 3 days from day 8, day 28 of STZ administration", "result": "6.7 ± 0.7 † g"}, {"measurement": "effect on diabetic peripheral neuropathic pain", "setting": "[1]; STZ-induced diabetic rats, conclusion of the discussion", "result": "suppressing effect"}, {"measurement": "Body weight", "setting": "[2]; 0.01 mg/kg iv, day 1 of STZ administration", "result": "295 ± 5"}, {"measurement": "Body weight", "setting": "[2]; 0.01 mg/kg iv, day 2 of STZ administration", "result": "281 ± 4"}, {"measurement": "Body weight", "setting": "[2]; 0.01 mg/kg iv, day 3 of STZ administration", "result": "277 ± 4"}, {"measurement": "Body weight", "setting": "[2]; 0.01 mg/kg iv, day 4 of STZ administration", "result": "280 ± 5"}, {"measurement": "Body weight", "setting": "[2]; 0.01 mg/kg iv, day 5 of STZ administration", "result": "282 ± 5"}, {"measurement": "Body weight", "setting": "[2]; 0.01 mg/kg iv, day 6 of STZ administration", "result": "287 ± 5"}, {"measurement": "Body weight", "setting": "[2]; 0.01 mg/kg iv, day 7 of STZ administration", "result": "291 ± 5"}, {"measurement": "Body weight", "setting": "[2]; 0.01 mg/kg iv, day 8 of STZ administration", "result": "290 ± 6"}, {"measurement": "Body weight", "setting": "[2]; 0.01 mg/kg iv, day 9 of STZ administration", "result": "292 ± 5"}, {"measurement": "Body weight", "setting": "[2]; 0.01 mg/kg iv, day 10 of STZ administration", "result": "297 ± 6"}, {"measurement": "Body weight", "setting": "[2]; 0.01 mg/kg iv, day 11 of STZ administration", "result": "298 ± 6"}, {"measurement": "Body weight", "setting": "[2]; 0.01 mg/kg iv, day 12 of STZ administration", "result": "302 ± 7"}, {"measurement": "Body weight", "setting": "[2]; 0.01 mg/kg iv, day 13 of STZ administration", "result": "304 ± 6"}, {"measurement": "Body weight", "setting": "[2]; 0.01 mg/kg iv, day 14 of STZ administration", "result": "306 ± 7"}, {"measurement": "Body weight", "setting": "[2]; 0.01 mg/kg iv, day 15 of STZ administration", "result": "306 ± 8"}, {"measurement": "Body weight", "setting": "[2]; 0.01 mg/kg iv, day 16 of STZ administration", "result": "307 ± 8"}, {"measurement": "Body weight", "setting": "[2]; 0.01 mg/kg iv, day 17 of STZ administration", "result": "309 ± 8"}, {"measurement": "Body weight", "setting": "[2]; 0.01 mg/kg iv, day 18 of STZ administration", "result": "311 ± 8"}, {"measurement": "Body weight", "setting": "[2]; 0.01 mg/kg iv, day 19 of STZ administration", "result": "309 ± 8"}, {"measurement": "Body weight", "setting": "[2]; 0.01 mg/kg iv, day 20 of STZ administration", "result": "312 ± 8"}, {"measurement": "Body weight", "setting": "[2]; 0.01 mg/kg iv, day 21 of STZ administration", "result": "312 ± 8"}, {"measurement": "Body weight", "setting": "[2]; 0.01 mg/kg iv, day 22 of STZ administration", "result": "311 ± 9"}, {"measurement": "Body weight", "setting": "[2]; 0.01 mg/kg iv, day 23 of STZ administration", "result": "312 ± 9"}, {"measurement": "Body weight", "setting": "[2]; 0.01 mg/kg iv, day 24 of STZ administration", "result": "310 ± 9"}, {"measurement": "Body weight", "setting": "[2]; 0.01 mg/kg iv, day 25 of STZ administration", "result": "312 ± 10"}, {"measurement": "Body weight", "setting": "[2]; 0.01 mg/kg iv, day 26 of STZ administration", "result": "315 ± 10"}, {"measurement": "Body weight", "setting": "[2]; 0.01 mg/kg iv, day 27 of STZ administration", "result": "308 ± 10"}, {"measurement": "Body weight", "setting": "[2]; 0.01 mg/kg iv, day 28 of STZ administration", "result": "312 ± 10"}, {"measurement": "Body weight", "setting": "[2]; 0.01 mg/kg iv, day 29 of STZ administration", "result": "311 ± 11"}, {"measurement": "Body weight", "setting": "[2]; 0.01 mg/kg iv, day 30 of STZ administration", "result": "313 ± 11"}, {"measurement": "Body weight", "setting": "[2]; 0.01 mg/kg iv, day 31 of STZ administration", "result": "309 ± 11"}, {"measurement": "Body weight", "setting": "[2]; 0.01 mg/kg iv, day 32 of STZ administration", "result": "310 ± 12"}, {"measurement": "Body weight", "setting": "[2]; 0.01 mg/kg iv, day 33 of STZ administration", "result": "308 ± 12"}, {"measurement": "Body weight", "setting": "[2]; 0.01 mg/kg iv, day 34 of STZ administration", "result": "313 ± 12"}, {"measurement": "Body weight", "setting": "[2]; 0.1 mg/kg iv, day 1 of STZ administration", "result": "293 ± 4"}, {"measurement": "Body weight", "setting": "[2]; 0.1 mg/kg iv, day 2 of STZ administration", "result": "279 ± 5"}, {"measurement": "Body weight", "setting": "[2]; 0.1 mg/kg iv, day 3 of STZ administration", "result": "275 ± 5"}, {"measurement": "Body weight", "setting": "[2]; 0.1 mg/kg iv, day 4 of STZ administration", "result": "277 ± 6"}, {"measurement": "Body weight", "setting": "[2]; 0.1 mg/kg iv, day 5 of STZ administration", "result": "280 ± 5"}, {"measurement": "Body weight", "setting": "[2]; 0.1 mg/kg iv, day 6 of STZ administration", "result": "285 ± 5"}, {"measurement": "Body weight", "setting": "[2]; 0.1 mg/kg iv, day 7 of STZ administration", "result": "289 ± 5"}, {"measurement": "Body weight", "setting": "[2]; 0.1 mg/kg iv, day 8 of STZ administration", "result": "287 ± 5"}, {"measurement": "Body weight", "setting": "[2]; 0.1 mg/kg iv, day 9 of STZ administration", "result": "292 ± 5"}]}]}
